The text below walks through data of PMC2857410 (The Journal of neuroscience : the official journal of the …, 2009).

The target of experiment [1] is heteromeric α7β2-nAChR (Xenopus oocytes) (Rattus norvegicus, UniProt P12390+Q05941). Description: two-electrode voltage clamp, agonist-induced current. Type of experiment: cell-based. Conditions: 10 mM, 2 s exposure, -70 mV, pH 7.5.
Experiment [2] deals with homomeric α7-nAChR (Xenopus oocytes) (Rattus norvegicus, UniProt Q05941). The description is as above. Conditions: 10 mM, 2 s exposure, -70 mV, pH 7.5. Type of experiment: cell-based.
homomeric α7-nAChR (Xenopus oocytes), sequence (Q05941 23-502): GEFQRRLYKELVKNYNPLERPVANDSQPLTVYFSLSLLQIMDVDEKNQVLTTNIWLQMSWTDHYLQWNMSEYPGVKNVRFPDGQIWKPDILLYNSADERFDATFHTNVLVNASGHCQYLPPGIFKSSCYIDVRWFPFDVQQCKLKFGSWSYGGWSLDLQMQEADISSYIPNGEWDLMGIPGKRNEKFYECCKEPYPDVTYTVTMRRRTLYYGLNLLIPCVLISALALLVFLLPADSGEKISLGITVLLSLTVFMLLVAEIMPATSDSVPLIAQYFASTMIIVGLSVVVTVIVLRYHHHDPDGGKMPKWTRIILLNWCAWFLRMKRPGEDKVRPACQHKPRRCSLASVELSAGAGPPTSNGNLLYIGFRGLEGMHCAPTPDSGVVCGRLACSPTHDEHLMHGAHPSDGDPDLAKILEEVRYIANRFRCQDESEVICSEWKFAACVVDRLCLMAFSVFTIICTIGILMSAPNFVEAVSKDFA

heteromeric α7β2-nAChR (Xenopus oocytes), sequence (Q05941 23-502): as above
heteromeric α7β2-nAChR (Xenopus oocytes), sequence (P12390 25-500): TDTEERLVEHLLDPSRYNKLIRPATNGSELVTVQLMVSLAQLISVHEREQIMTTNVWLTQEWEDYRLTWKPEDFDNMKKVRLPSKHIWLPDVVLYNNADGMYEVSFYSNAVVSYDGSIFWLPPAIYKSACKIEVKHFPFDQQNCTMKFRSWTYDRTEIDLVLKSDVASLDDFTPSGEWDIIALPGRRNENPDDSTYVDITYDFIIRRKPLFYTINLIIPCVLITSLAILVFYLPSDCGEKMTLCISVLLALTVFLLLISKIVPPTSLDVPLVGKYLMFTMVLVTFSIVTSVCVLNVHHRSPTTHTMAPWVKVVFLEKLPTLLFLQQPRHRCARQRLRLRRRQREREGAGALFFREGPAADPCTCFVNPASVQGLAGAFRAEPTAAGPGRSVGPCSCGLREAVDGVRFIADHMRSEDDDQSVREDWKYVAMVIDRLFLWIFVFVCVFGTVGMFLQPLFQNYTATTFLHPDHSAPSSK

With `C[N+](C)(C)CCO` [choline], the “two-electrode voltage clamp, agonist-induced current” value is “exhibited smaller peak current responses to choline and slower current decay rates” in experiment [1]; “oocytes injected with rat α7-nAChR subunit cRNA alone” in experiment [2].
